# Test results as given in the RepoRT retention time repository (doi:10.1039/c4mb00346b).
# Assay: HILIC, Merck SeQuant ZIC-pHILIC, 150 × 2.1 mm, 5 µm, 0.1 mL/min, estimated dead time 3.3 min; A: acetonitrile; B: water + 10 mM ammonium carbonate; gradient (min/%B) 0/20 30/80
# Conditions: stereoisomer not certain
row,Structure (SMILES),LC retention time [min]
1,NC(CCCC(=O)O)C(=O)O (stereo not given) [2-Aminoadipate],12.2
2,O=C(O)CCC(=O)C(=O)O [2-Oxoglutarate],12.9
3,Nc1ccc(C(=O)O)cc1 [4-Aminobenzoate],7.2
4,CC(=O)OC(CC(=O)[O-])C[N+](C)(C)C (stereo not given) [Acetyl-carnitine],8.5
5,NC(N)=NCCCC(N)C(=O)O (stereo not given) [Arginine],24.8
6,NC(=NCCCC(N)C(=O)O)NC(CC(=O)O)C(=O)O (stereo not given) [Arginino-succinate],14.2
7,NC(=O)CC(N)C(=O)O (stereo not given) [Asparagine],12.4
8,C[N+](C)(C)CC(=O)[O-] [Betaine],8.6
9,C[N+](C)(C)CCCC(=O)O [Butyro-betaine],10.9
10,CCCC(=O)OC(CC(=O)[O-])C[N+](C)(C)C (stereo not given) [Butyryl-carnitine],6.2
11,C[N+](C)(C)CC(O)CC(=O)[O-] (stereo not given) [Carnitine],10.9
12,CC(O)(CC(=O)O)C(=O)O (stereo not given) [Citramalate],12.6
13,O=C(O)CC(O)(CC(=O)O)C(=O)O [Citrate],15.5
14,NC(=O)NCCCC(N)C(=O)O (stereo not given) [Citrulline],13
15,CN(CC(=O)O)C(=N)N [Creatine],12.1
16,CN1CC(=O)NC1=N [Creatinine],6.9
17,CCCCCCCCCC(=O)OC(CC(=O)[O-])C[N+](C)(C)C (stereo not given) [Decanoyl-carnitine],4.2
18,CN(C)C(N)=NCCCC(N)C(=O)O (stereo not given) [Dimethyl-arginine],20
19,C[NH+](C)C(Cc1cnc[nH]1)C(=O)[O-] (stereo not given) [Dimethyl-histidine],9.7
20,CN(C)CCCCC(N)C(=O)O (stereo not given) [Dimethyl-lysine],19.2
21,C[N+]1(C)CCCC1C(=O)[O-] (stereo not given) [Dimethyl-proline (stachydrine)],7.9
22,O=C(O)C=CC(=O)O [Fumarate],13.1
23,O=C(O)C(O)C(O)C(O)C(O)CO (stereo not given) [Gluconate],11.4

row,Structure (SMILES),LC retention time [min]
1,NC(=O)CCC(N)C(=O)O (stereo not given) [Glutamine],12.2
2,O=C(O)CCCC(=O)O [Glutarate],12
3,NC(CCC(=O)NC(CSSCC(NC(=O)CCC(N)C(=O)O)C(=O)NCC(=O)O)C(=O)NCC(=O)O)C(=O)O (stereo not given) [Glutathione disulfide (GSSG)],15
4,O=C(O)C(O)CO (stereo not given) [Glyceric acid],10.1
5,C[N+](C)(C)CCOP(=O)([O-])OCC(O)CO (stereo not given) [Glycerophosphocholine],12.1
6,CCCCCC(=O)OC(CC(=O)[O-])C[N+](C)(C)C (stereo not given) [Hexanoyl-carnitine],4.8
7,NCCc1cnc[nH]1 [Histamine],24.8
8,NC(CO)Cc1cnc[nH]1 (stereo not given) [Histidinol],16.3
9,O=S(=O)(O)Oc1c[nH]c2ccccc12 [Indoxyl-sulfate],4.9
10,CCC(C)C(N)C(=O)O (stereo not given) [Isoleucine],8.6
11,CC(C)CC(=O)OC(CC(=O)[O-])C[N+](C)(C)C (stereo not given) [Isovaleryl-carnitine],5.4
12,CC(C)CC(N)C(=O)O (stereo not given) [Leucine],7.6
13,NCCCCC(N)C(=O)O (stereo not given) [Lysine],23.3
14,O=C(O)CC(O)C(=O)O (stereo not given) [Malate],13.3
15,CSCCC(N)C(=O)O (stereo not given) [Methionine],8.7
16,CNCCCCC(N)C(=O)O (stereo not given) [Methyl-lysine],22.1
17,CC(=O)NC(CCCC[NH3+])C(=O)[O-] (stereo not given) [N2-Acetyl-lysine],12.7
18,CC(=O)NCCCCC([NH3+])C(=O)[O-] (stereo not given) [N6-Acetyl-lysine],10.5
19,CCC(C)C(NC(C)=O)C(=O)O (stereo not given) [N-Acetyl-(iso)leucine],4.4
20,CC(=O)NC(CCC[NH+]=C(N)N)C(=O)[O-] (stereo not given) [N-Acetyl-arginine],12.3
21,CC(=O)NC(CC(=O)O)C(=O)O (stereo not given) [N-Acetyl-aspartate],12.5
22,CC(=O)NC(CCCN)C(=O)O (stereo not given) [N-Acetyl-ornithine],11.1

# Results, then the molecule that gave them:
row,LC retention time [min],Structure (SMILES)
1,9.2,"OCC1OCC(O)C(O)C1O (stereo not given) [1,5-Anhydroglucitol]"
2,11.1,Cn1cnc2c(ncn2C2OC(CO)C(O)C2O)c1=N (stereo not given) [1-Methyl-adenosine]
3,7.1,Cn1c(N)nc2c(ncn2C2OC(CO)C(O)C2O)c1=O (stereo not given) [1-Methyl-guanosine]
4,7.1,"Nc1ncnc2c1ncn2C1OC2COP(=O)(O)OC2C1O (stereo not given) [3',5'-cAMP]"
5,15,O=C(O)C(O)C(O)C(O)C(O)COP(=O)(O)O (stereo not given) [6-Phosphogluconate]
6,12.4,Nc1ncnc2c1ncn2C1OC(COP(=O)(O)OP(=O)(O)O)C(O)C1O (stereo not given) [ADP]
7,12.7,NC(=O)c1ncn(C2OC(COP(=O)(O)O)C(O)C2O)c1N (stereo not given) [AICAR]
8,11.5,Nc1ncnc2c1ncn2C1OC(COP(=O)(O)O)C(O)C1O (stereo not given) [AMP]
9,13.8,Nc1ncnc2c1ncn2C1OC(COP(=O)(O)OP(=O)(O)OP(=O)(O)O)C(O)C1O (stereo not given) [ATP]
10,10.5,CC(=O)SCCNC(=O)CCNC(=O)C(O)C(C)(C)COP(=O)(O)OP(=O)(O)OCC1OC(n2cnc3c(N)ncnc32)C(O)C1OP(=O)(O)O (stereo not given) [Acetyl-CoA]
11,6.6,Nc1ncnc2nc[nH]c12 [Adenine]
12,6.2,Nc1ncnc2c1ncn2C1OC(CO)C(O)C1O (stereo not given) [Adenosine]
13,12.5,NC(CC(=O)O)C(=O)O (stereo not given) [Aspartate]
14,6.2,O=C(O)CCCCC1SCC2NC(=O)NC21 (stereo not given) [Biotin]
15,13,C[N+](C)(C)CCOP(=O)(O)OP(=O)([O-])OCC1OC(n2ccc(N)nc2=O)C(O)C1O (stereo not given) [CDP-choline]
16,14.7,Nc1ccn(C2OC(COP(=O)(O)OP(=O)(O)O)C(O)C2O)c(=O)n1 (stereo not given) [CDP]
17,13.2,Nc1ccn(C2OC(COP(=O)(O)O)C(O)C2O)c(=O)n1 (stereo not given) [CMP]
18,15.5,Nc1ccn(C2OC(COP(=O)(O)OP(=O)(O)OP(=O)(O)O)C(O)C2O)c(=O)n1 (stereo not given) [CTP]
19,11.7,CC(C)(COP(=O)(O)OP(=O)(O)OCC1OC(n2cnc3c(N)ncnc32)C(O)C1OP(=O)(O)O)C(O)C(=O)NCCC(=O)NCCS (stereo not given) [CoA]
20,9.1,Nc1ccn(C2OC(CO)C(O)C2O)c(=O)n1 (stereo not given) [Cytidine]
21,6,CN(C)c1nc2c(ncn2C2OC(CO)C(O)C2O)c(=O)[nH]1 (stereo not given) [Dimethyl-guanosine]
22,15.6,O=C(O)C(COP(=O)(O)O)OP(=O)(O)O (stereo not given) [Diphospho-glycerate]
23,12.1,C[N+](C)(C)C(Cc1cnc([S-])[nH]1)C(=O)O (stereo not given) [Ergothioneine]
24,9.4,Cc1cc2nc3c(=O)[nH]c(=O)nc-3n(CC(O)C(O)C(O)COP(=O)(O)OP(=O)(O)OCC3OC(n4cnc5c(N)ncnc54)C(O)C3O)c2cc1C (stereo not given) [FAD]
25,15.5,"O=P(O)(O)OCC1OC(O)(COP(=O)(O)O)C(O)C1O (stereo not given) [Fructose-1,6-diphosphate]"

row,LC retention time [min],Structure (SMILES)
1,13.3,O=P(O)(O)OCC1OC(O)(CO)C(O)C1O (stereo not given) [Fructose-6-phosphate]
2,15.5,Nc1nc2c(ncn2C2OC(COP(=O)(O)OP(=O)(O)OC3OC(CO)C(O)C(O)C3O)C(O)C2O)c(=O)[nH]1 (stereo not given) [GDP-glucose]
3,15.5,Nc1nc2c(ncn2C2OC(COP(=O)(O)OP(=O)(O)O)C(O)C2O)c(=O)[nH]1 (stereo not given) [GDP]
4,14.1,Nc1nc2c(ncn2C2OC(COP(=O)(O)O)C(O)C2O)c(=O)[nH]1 (stereo not given) [GMP]
5,16.4,Nc1nc2c(ncn2C2OC(COP(=O)(O)OP(=O)(O)OP(=O)(O)O)C(O)C2O)c(=O)[nH]1 (stereo not given) [GTP]
6,11.6,NC1C(O)OC(CO)C(O)C1O (stereo not given) [Glucosamine]
7,14.2,O=P(O)(O)OCC1OC(O)C(O)C(O)C1O (stereo not given) [Glucose-6-phosphate]
8,12,OCC1OC(O)C(O)C(O)C1O (stereo not given) [Glucose]
9,7.1,COC(=O)C(N)CCC(=O)O (stereo not given) [Glutamate methyl ester]
10,12.1,NC(CCC(=O)O)C(=O)O (stereo not given) [Glutamate]
11,13.2,O=CC(O)COP(=O)(O)O (stereo not given) [Glyceraldehyde-3-phosphate]
12,12.2,O=P(O)(O)OC(CO)CO [Glycerol-2-phosphate]
13,9.8,Nc1nc2c(ncn2C2OC(CO)C(O)C2O)c(=O)[nH]1 (stereo not given) [Guanosine]
14,13.2,CC(O)(CC(=O)O)CC(=O)SCCNC(=O)CCNC(=O)C(O)C(C)(C)COP(=O)(O)OP(=O)(O)OCC1OC(n2cnc3c(N)ncnc32)C(O)C1OP(=O)(O)O (stereo not given) [HMG-CoA]
15,4.4,O=C(O)CNC(=O)c1ccccc1 [Hippurate]
16,12,NC(Cc1cnc[nH]1)C(=O)O (stereo not given) [Histidine]
17,7.6,O=c1[nH]cnc2nc[nH]c12 [Hypoxanthine]
18,8.2,O=c1[nH]cnc2c1ncn2C1OC(CO)C(O)C1O (stereo not given) [Inosine]
19,8,Nc1ccccc1C(=O)CC(N)C(=O)O (stereo not given) [Kynurenine]
20,10.2,Cn1cnc(CC(N)C(=O)O)c1 (stereo not given) [Methyl-histidine]
21,9.3,CC(=O)N[C@H]1C(O)O[C@H](CO)[C@@H](O)[C@@H]1O (stereo partly drawn) [N-Acetyl-D-glucosamine]
22,11.6,CC(=O)NC(CCC(=O)O)C(=O)O (stereo not given) [N-Acetyl-glutamate]
23,11.9,NC(=O)c1ccc[n+](C2OC(COP(=O)(O)OP(=O)(O)OCC3OC(n4cnc5c(N)ncnc54)C(O)C3O)C(O)C2O)c1 (stereo not given) [NAD+]
24,11.1,NC(=O)C1=CN(C2OC(COP(=O)(O)OP(=O)(O)OCC3OC(n4cnc5c(N)ncnc54)C(O)C3O)C(O)C2O)C=CC1 (stereo not given) [NADH]
25,14.4,NC(=O)c1ccc[n+](C2OC(COP(=O)(O)OP(=O)(O)OCC3OC(n4cnc5c(N)ncnc54)C(OP(=O)(O)O)C3O)C(O)C2O)c1 (stereo not given) [NADP+]
